Experimental data as given in PubChem BioAssay (NCI).
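Following 48 hours of exposure in 96-well plates, responses at five concentrations were used to interpolate endpoints linearly. GI50 marks 50% less growth. At the TGI there is no net growth.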

Tests used:
Assay in all cases: NCI-60 cell line screen, 48 h
[1] = test system: 786-0 renal
[2] = test system: A498 renal
[3] = test system: A549 NSCLC
[4] = test system: ACHN renal
[5] = test system: BT-549 breast
[6] = test system: CAKI-1 renal
[7] = test system: CCRF-CEM leukemia
[8] = test system: COLO 205 colon
[9] = test system: DU-145 prostate
[10] = test system: EKVX NSCLC
[11] = test system: HCC-2998 colon
[12] = test system: HCT-116 colon
[13] = test system: HCT-15 colon
[14] = test system: HL-60(TB) leukemia
[15] = test system: HOP-62 NSCLC
[16] = test system: HOP-92 NSCLC
[17] = test system: HS 578T breast
[18] = test system: HT29 colon
[19] = test system: IGROV1 ovarian
[20] = test system: K-562 leukemia
[21] = test system: KM12 colon
[22] = test system: LOX IMVI melanoma
[23] = test system: M14 melanoma
[24] = test system: MALME-3M melanoma
[25] = test system: MCF7 breast
[26] = test system: MDA-MB-231 breast
[27] = test system: MDA-MB-435
[28] = test system: MOLT-4 leukemia
[29] = test system: NCI-H226 lung
[30] = test system: NCI-H23 lung
[31] = test system: NCI-H460 lung
[32] = test system: NCI-H522 lung
[33] = test system: NCI/ADR-RES ovarian
[34] = test system: OVCAR-3 ovarian
[35] = test system: OVCAR-4 ovarian
[36] = test system: OVCAR-5 ovarian
[37] = test system: OVCAR-8 ovarian
[38] = test system: PC-3 prostate
[39] = test system: RPMI-8226 leukemia
[40] = test system: RXF 393 renal
[41] = test system: SF-268 CNS
[42] = test system: SF-295 CNS
[43] = test system: SF-539 CNS
[44] = test system: SK-MEL-2 melanoma
[45] = test system: SK-MEL-28 melanoma
[46] = test system: SK-MEL-5 melanoma
[47] = test system: SK-OV-3 ovarian
[48] = test system: SN12C renal
[49] = test system: SNB-19 CNS
[50] = test system: SNB-75 CNS
[51] = test system: SR leukemia
[52] = test system: SW-620 colon
[53] = test system: T-47D breast
[54] = test system: TK-10 renal
[55] = test system: U251 CNS
[56] = test system: UACC-257 melanoma
[57] = test system: UACC-62 melanoma
[58] = test system: UO-31 renal

**Q.** With CCSc1ccc2c(c1)N(CCCN1CCN(C)CC1)c1ccccc1S2 as the compound, how does the GI50 [1] read?
**A.** 2.61 µM

**Q.** What about the TGI [1] of the same compound?
**A.** 7.6 µM

**Q.** What about the GI50 [2] of the same compound?
**A.** 1.83 µM

**Q.** What about the TGI [2] of the same compound?
**A.** 10.2 µM

**Q.** And the GI50 [3]?
**A.** 3.21 µM

**Q.** And the TGI [3]?
**A.** 10.5 µM

**Q.** What about the GI50 [4] of the same compound?
**A.** 2.49 µM

**Q.** And the TGI [4]?
**A.** 6.83 µM

**Q.** And the GI50 [5]?
**A.** 4.75 µM

**Q.** What about the TGI [5] of the same compound?
**A.** 18.9 µM

**Q.** And the GI50 [6]?
**A.** 1.75 µM

**Q.** And the TGI [6]?
**A.** 4.19 µM

**Q.** And the GI50 [7]?
**A.** 2.56 µM

**Q.** And the TGI [7]?
**A.** 7.1 µM

**Q.** And the GI50 [8]?
**A.** 1.76 µM

**Q.** What about the TGI [8] of the same compound?
**A.** 3.37 µM

**Q.** What about the GI50 [9] of the same compound?
**A.** 3.82 µM

**Q.** And the TGI [9]?
**A.** 14.2 µM

**Q.** And the GI50 [10]?
**A.** 6.04 µM

**Q.** And the TGI [10]?
**A.** 22.6 µM

**Q.** And the GI50 [11]?
**A.** 1.7 µM

**Q.** And the TGI [11]?
**A.** 3.28 µM

**Q.** And the GI50 [12]?
**A.** 2.04 µM

**Q.** What about the TGI [12] of the same compound?
**A.** 4.4 µM

**Q.** And the GI50 [13]?
**A.** 2.06 µM

**Q.** What about the TGI [13] of the same compound?
**A.** 4.98 µM

**Q.** What about the GI50 [14] of the same compound?
**A.** 1.83 µM

**Q.** What about the TGI [14] of the same compound?
**A.** 4.61 µM

**Q.** What about the GI50 [15] of the same compound?
**A.** 2.84 µM

**Q.** What about the TGI [15] of the same compound?
**A.** 8.15 µM

**Q.** What about the GI50 [16] of the same compound?
**A.** 1.85 µM

**Q.** What about the TGI [16] of the same compound?
**A.** 7.06 µM

**Q.** What about the GI50 [17] of the same compound?
**A.** 2 µM

**Q.** And the TGI [17]?
**A.** 5.56 µM

**Q.** And the GI50 [18]?
**A.** 1.81 µM

**Q.** What about the TGI [18] of the same compound?
**A.** 3.44 µM

**Q.** And the GI50 [19]?
**A.** 2.19 µM

**Q.** What about the TGI [19] of the same compound?
**A.** 5.41 µM

**Q.** And the GI50 [20]?
**A.** 2.39 µM

**Q.** What about the TGI [20] of the same compound?
**A.** > 100 µM

**Q.** And the GI50 [21]?
**A.** 1.87 µM

**Q.** What about the TGI [21] of the same compound?
**A.** 3.56 µM

**Q.** And the GI50 [22]?
**A.** 1.67 µM

**Q.** What about the TGI [22] of the same compound?
**A.** 3.16 µM

**Q.** What about the GI50 [23] of the same compound?
**A.** 1.88 µM

**Q.** What about the TGI [23] of the same compound?
**A.** 3.67 µM

**Q.** What about the GI50 [24] of the same compound?
**A.** 1.58 µM

**Q.** What about the TGI [24] of the same compound?
**A.** 3.35 µM

**Q.** What about the GI50 [25] of the same compound?
**A.** 1.79 µM

**Q.** What about the TGI [25] of the same compound?
**A.** 3.43 µM

**Q.** What about the GI50 [26] of the same compound?
**A.** 2 µM

**Q.** What about the TGI [26] of the same compound?
**A.** 4.95 µM

**Q.** And the GI50 [27]?
**A.** 1.72 µM

**Q.** And the TGI [27]?
**A.** 3.47 µM

**Q.** What about the GI50 [28] of the same compound?
**A.** 2.64 µM

**Q.** What about the TGI [28] of the same compound?
**A.** 6.53 µM

**Q.** What about the GI50 [29] of the same compound?
**A.** 7.17 µM

**Q.** And the TGI [29]?
**A.** 27.5 µM

**Q.** And the GI50 [30]?
**A.** 6.58 µM

**Q.** And the TGI [30]?
**A.** 21.3 µM

**Q.** What about the GI50 [31] of the same compound?
**A.** 1.87 µM

**Q.** And the TGI [31]?
**A.** 3.53 µM

**Q.** What about the GI50 [32] of the same compound?
**A.** 1.7 µM

**Q.** What about the TGI [32] of the same compound?
**A.** 3.5 µM

**Q.** And the GI50 [33]?
**A.** 3.68 µM

**Q.** What about the TGI [33] of the same compound?
**A.** 16.8 µM

**Q.** And the GI50 [34]?
**A.** 2.48 µM

**Q.** What about the TGI [34] of the same compound?
**A.** 7.12 µM

**Q.** And the GI50 [35]?
**A.** 3.63 µM

**Q.** And the TGI [35]?
**A.** 12.3 µM

**Q.** What about the GI50 [36] of the same compound?
**A.** 2.19 µM

**Q.** What about the TGI [36] of the same compound?
**A.** 6.44 µM

**Q.** And the GI50 [37]?
**A.** 4.39 µM

**Q.** What about the TGI [37] of the same compound?
**A.** 10.9 µM

**Q.** And the GI50 [38]?
**A.** 2.74 µM

**Q.** What about the TGI [38] of the same compound?
**A.** 9.64 µM

**Q.** What about the GI50 [39] of the same compound?
**A.** 2.46 µM

**Q.** And the TGI [39]?
**A.** 6.96 µM

**Q.** What about the GI50 [40] of the same compound?
**A.** 2.82 µM

**Q.** What about the TGI [40] of the same compound?
**A.** 8.88 µM

**Q.** What about the GI50 [41] of the same compound?
**A.** 3.96 µM

**Q.** And the TGI [41]?
**A.** 16.9 µM

**Q.** And the GI50 [42]?
**A.** 2.2 µM

**Q.** What about the TGI [42] of the same compound?
**A.** 5.97 µM

**Q.** And the GI50 [43]?
**A.** 1.83 µM

**Q.** And the TGI [43]?
**A.** 3.76 µM

**Q.** And the GI50 [44]?
**A.** 3.25 µM

**Q.** And the TGI [44]?
**A.** 8.49 µM

**Q.** What about the GI50 [45] of the same compound?
**A.** 1.73 µM

**Q.** And the TGI [45]?
**A.** 3.27 µM

**Q.** What about the GI50 [46] of the same compound?
**A.** 1.73 µM

**Q.** And the TGI [46]?
**A.** 3.16 µM

**Q.** And the GI50 [47]?
**A.** 10.4 µM

**Q.** What about the TGI [47] of the same compound?
**A.** 24 µM

**Q.** And the GI50 [48]?
**A.** 4.54 µM

**Q.** And the TGI [48]?
**A.** 18.4 µM

**Q.** And the GI50 [49]?
**A.** 3.16 µM

**Q.** What about the TGI [49] of the same compound?
**A.** 12 µM

**Q.** What about the GI50 [50] of the same compound?
**A.** 1.79 µM

**Q.** And the TGI [50]?
**A.** 5.5 µM

**Q.** And the GI50 [51]?
**A.** 2.71 µM

**Q.** And the TGI [51]?
**A.** 8.65 µM

**Q.** What about the GI50 [52] of the same compound?
**A.** 1.88 µM

**Q.** What about the TGI [52] of the same compound?
**A.** 3.65 µM

**Q.** What about the GI50 [53] of the same compound?
**A.** 2.17 µM

**Q.** And the TGI [53]?
**A.** 5.79 µM

**Q.** What about the GI50 [54] of the same compound?
**A.** 1.73 µM

**Q.** What about the TGI [54] of the same compound?
**A.** 3.27 µM

**Q.** And the GI50 [55]?
**A.** 2.05 µM

**Q.** And the TGI [55]?
**A.** 4.64 µM

**Q.** And the GI50 [56]?
**A.** 1.81 µM

**Q.** What about the TGI [56] of the same compound?
**A.** 3.48 µM

**Q.** And the GI50 [57]?
**A.** 1.67 µM

**Q.** And the TGI [57]?
**A.** 3.34 µM

**Q.** And the GI50 [58]?
**A.** 2.1 µM

**Q.** What about the TGI [58] of the same compound?
**A.** 10.1 µM
